The subject of one data set is Hh-signalling cascade. Briefly: Inhibition of SHh-induced alkaline phosphatase in C3H10T1/2 cells (Hh-signalling cascade inhibition). It counts as cell-based. The conditions noted are these: Mus musculus, C3H 10T1/2, half maximal inhibition of SHh (0.3 μg/ml) stimulation of cell alkaline phosphatase. The essentials: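 C3H10T1/2 cells preincubated 30 min with compound (screen at 10 μM; IC50 from triplicate dilution series), then stimulated with 0.3 μg/ml recombinant SHh for 3 days at 37 °C. Alkaline phosphatase measured by CSPD luminescence in 0.2% Triton-X100 lysates; IC50 = half-maximal inhibition of SHh-induced activity.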

In turn, `Cc1nn(C(C)C(=O)N2CCN(c3ccccc3)CC2)c(=O)c2nn(-c3ccccc3)c(C)c12` (stereo not shown) [I-1008, 2 Phenyl-3,4-dimethyl-6-[1-methyl-2-(4-phenylpiperazin-1-yl)-2-oxoethyl]-2,6-dihydro-7H-pyrazolo[3,4-d]pyridazin-7-one] had a melting point of 193 to 195 °C. Moreover, in the data set with Hh-signalling cascade, the 50% inhibitory concentration (IC50) was less than 0.5 µM.
In the same order, the values of `Cc1nn(C(C)C(=O)N2CCN(c3cccc(Cl)c3)CC2)c(=O)c2nn(-c3ccccc3)c(C)c12` (stereo not shown) [I-1009, 2-Phenyl-3,4-dimethyl-6-{1-methyl-2-[4-(3-chlorophenyl)piperazin-1-yl]-2-oxoethyl}-2,6-dihydro-7H-pyrazolo[3,4-d]pyridazin-7-one] are 194 to 196 °C and less than 0.5 µM.
Take `Cc1nn(C(C)C(=O)N2CCN(C3CCCCC3)CC2)c(=O)c2nn(-c3ccccc3)c(C)c12` (stereo not shown) [I-1010, 2-Phenyl-3,4-dimethyl-6-{1-methyl-2-[4-cyclohexylpiperazin-1-yl]-2-oxoethyl}-2,6-dihydro-7H-pyrazolo[3,4-d]pyridazin-7-one]: the melting point lay in the range of 132 to 135 °C. The compound also displayed an IC50 with Hh-signalling cascade of less than 0.5 µM.
The compound `Cc1cccc(N2CCN(C(=O)C(C)n3nc(C)c4c(C)n(-c5ccccc5)nc4c3=O)CC2)c1C` (stereo not shown) [I-1011, 2-Phenyl-3,4-dimethyl-6-{1-methyl-2-[4-(2,3-dimethylphenyl)piperazin-1-yl]-2-oxoethyl}-2,6-dihydro-7H-pyrazolo[3,4-d]pyridazin-7-one] had a melting point of 136 to 138 °C. The compound further displayed an IC50 in the data set with Hh-signalling cascade of less than 0.5 µM.
As for `Cc1nn(C(C)C(=O)N2CCN(Cc3ccccc3)CC2)c(=O)c2nn(-c3ccccc3)c(C)c12` (stereo not shown) [I-1012, 2-Phenyl-3,4-dimethyl-6-{1-methyl-2-[4-benzylpiperazin-1-yl]-2-oxoethyl}-2,6-dihydro-7H-pyrazolo[3,4-d]pyridazin-7-one], the melting point was 152 to 154 °C. The compound also came in with a concentration for half-maximal inhibition (IC50) in the data set with Hh-signalling cascade of less than 0.5 µM.
In turn, `O=C(c1cc2sccc2n1Cc1ccc(F)cc1)N1CCC(C(=O)N2CCOCC2)CC1` [V-1001, [4-(4-Fluorobenzyl)-4H-thieno[3,2-b]pyrrol-5-yl][4-(morpholine-4-carbonyl)piperidin-1-yl]methanone] showed a melting point of 120 to 122 °C. The compound further returned a 50% inhibitory concentration (IC50) in the data set with Hh-signalling cascade of less than 0.5 µM.
Take `Cc1cc(C)cc(NC(=O)C2CCN(C(=O)c3cc4sccc4n3Cc3ccc(F)cc3)CC2)c1` [V-1002, 1-[4-(4-Fluorobenzyl)-4H-thieno[3,2-b]pyrrole-5-carbonyl]piperidine-4-carboxylic acid (3,5-dimethylphenyl)amide]: the melting point was 203 to 205 °C. The concentration for half-maximal inhibition (IC50) with Hh-signalling cascade is less than 0.5 µM.
For the compound `CCOc1ccc(NC(=O)c2ccnc(N3CCC(C(=O)NCCCc4ccccc4)CC3)c2)cc1` [VI-1001, 3,4,5,6-Tetrahydro-2H-[1,2]bipyridinyl-4,4′-carboxylic acid 4′-[(4-ethoxyphenyl)amide] 4-[(3-phenylpropyl)amide]], the melting point fell in the range of 203 to 205 °C. For the same compound, the half-inhibitory concentration (IC50) with Hh-signalling cascade was less than 0.5 µM.
Compound `CCOc1ccc(NC(=O)c2ccnc(N3CCC(C(=O)Nc4ccc(C)c(C)c4)CC3)c2)cc1` [VI-1002, 3,4,5,6-Tetrahydro-2H-[1,2′]bipyridinyl-4,4′-carboxylic acid 4-[(3,4-dimethylphenyl)amide] 4′-[(4-ethoxyphenyl)amide]] registered a melting point of 235 to 237 °C. This compound also gave an IC50 in the data set on Hh-signalling cascade of less than 5 µM.
The compound `CCOc1ccc(NC(=O)c2ccnc(N3CCC(C(=O)Nc4cc(C)cc(C)c4)CC3)c2)cc1` [VI-1003, 3,4,5,6-Tetrahydro-2H-[1,2′]bipyridinyl-4,4′-carboxylic acid 4-[(3,5-dimethylphenyl)amide] 4′-[(4-ethoxyphenyl)amide]] returned a melting point of 250 to 252 °C. This compound showed a half-inhibitory concentration (IC50) with Hh-signalling cascade of less than 5 µM.
`CCOc1ccc(NC(=O)c2ccnc(N3CCC(C(=O)Nc4cccc(SC)c4)CC3)c2)cc1` [VI-1004] came in with a melting point of 200 to 202 °C. The compound also came in with an IC50 with Hh-signalling cascade of less than 5 µM.

As a reminder, the IC50 is the concentration at which inhibition is half-maximal. One may read the melting point as the temperature, or range, at which the solid turns liquid.

The values are drawn from patent publication US8486945B2, “Heterocyclic inhibitors of an Hh-signal cascade, medicinal compositions based thereon and methods for treating diseases caused by the aberrant activity of an Hh-signal system” (priority 2007, dated 2013).
